We go through four compounds from US4916122A, “3'-Azido-2',3'-dideoxyuridine anti-retroviral composition” (University of Georgia Research Foundation, Inc., priority 1987, dated 1990).

SMILES strings stand for the structures. pEC50: −log10 of the molar value. ≈ marks a conversion by molar mass, not a printed value.

Data set [1] is described as follows: Effect on weight of uninfected BALB/c mice (FIG. 3). It is filed as in vivo, mouse. To be noted: compared with each other and control.
The subject of the next data set is HIV-1 (Strain RF-II). The experiment in a line: Antiviral activity against HIV-1 in HeLa-T4 cells (Table 4). It is filed as cell-based. As to conditions: Human immunodeficiency virus 1, HeLaT4, HIV-1. Here is the method: Evaluation in Hela-T4 cells infected with HIV-1 (Strain RF-II)
HeLa-T4 cells (described in Cell 47: 333, 1986) are maintained in Dulbecco's Modified Eagle medium containing 10% inactivated fetal calf serum, penicillin (100 U/ml) and streptomycin (100 μg/ml), and the antibiotic G418 (1 mg/ml). The cells are seeded onto a 96-well plate (2×10^4 cells/well per 0.1 ml), and two days later, the supernatant is removed and the virus added. After adsorption for 45 minutes, the inoculum is removed and the cells washed with phosphate-buffered saline (pH 7.2). The compounds at different concentration are then added in maintenance medium (containing 2% serum). […] The cells are fixed with a mixture of 5% glacial acetic acid/95% Ethanol for 15 minutes, and then stained with Giemsa (20% in PSB) for 4 hours. The plates are then washed and dried. The foci are then enumerated with a dissecting stereomicroscope.

The test system of the next data set is HIV-1 (Strain HTLV-III). The experiment in a line: Antiviral activity against HIV-1 in ATH-8 cells (Table 4). To be noted: Human immunodeficiency virus 1, 240 h, read-out: ATH-8 (MIC).
A further data set has as its system HIV-1. The experiment in a line: microbe, parasite or virus in culture. As to conditions: Human immunodeficiency virus 1, PBMC, read-out: PBM (EC50).
In a further data set the test system is SIV (SMM). The experiment in a line: Median effective antiviral concentration against SIV (Table 5). It is filed as cell-based, simian immunodeficiency virus. To be noted: Simian immunodeficiency virus. The text has this:
(§1) A comparison of the differences in median effective an tiviral concentrations between human, non-human primate, and murine retroviruses is shown in Table 5. […] A further comparison of the activity of several nucleoside analogues, including CS-87, against HIV-1 and SIV in human PBM cells is shown in FIG. 6. The effect of delayed treatment with AZT, CS-87 or CS-91 on the replication of HIV-1 and SIV in human PBM cells is shown in FIGS. 7a, b, and c.

The test system of a further data set is HIV-1 and SIV. The experiment in a line: Effect of delayed treatment on replication of HIV-1 and SIV in human PBM cells (FIG. 7). It is filed as cell-based, HIV-1; SIV.
Excerpt: as §1

A further data set has as its system HIV (LAV-1). The data set can be described thus: Median effective antiviral concentration against HIV (Table 5). To be noted: Human immunodeficiency virus 1. It is filed as cell-based.
For data set [2], the system named is Mouse ecotropic (Cas-Br-M). The experiment in a line: Median effective antiviral concentration against mouse ecotropic virus (Table 5). To be noted: unidentified retrovirus. It is filed as cell-based, murine retrovirus.
Excerpt: as §1

The subject of data set [3] is two particular enzymes isolated from L1210 cells. To be noted: Lin et al.; cited from earlier work.
The subject of a further data set is sarcoma 180 cells. As to conditions: in vitro; Lin et al.; cited from earlier work.
The next data set relates to L1210 cells. To be noted: in vitro; Lin et al.; Lin and Mancini; cited from earlier work.

Take `CCc1cn([C@H]2C[C@H](N=[N+]=[N-])[C@@H](CO)O2)c(=O)[nH]c1=O` [CS-85, 3'-azido-2',3'-dideoxy-5-ethyl-uridine, reference compound]: the “effect on weight of uninfected BALB/c mice” value in data set [1] is “no significant difference”.
With `Nc1ccn([C@H]2CC[C@@H](CO)O2)c(=O)n1` [d2C (ddC), 2',3'-dideoxycytidine, reference compound], the pEC50 (usually the EC50 on a negative log10 scale, so that one unit is a factor of ten) in the data set on HIV-1 (Strain RF-II) is 6.32; in the data set with HIV-1 it was 7.96. The MIC with HIV-1 (Strain HTLV-III) worked out at 0.47 µM (≈ 0.0993 µg/mL).
Regarding `[N-]=[N+]=N[C@H]1C[C@H](n2ccc(N)nc2=O)O[C@@H]1CO` [CS-91, 3' azido 2',3'-dideoxycytidine], the pEC50 was 5.94 with SIV (SMM), 6.41 in the data set on HIV (LAV-1) and 4.11 in data set [2]. Besides, the “effect of delayed treatment on replication of HIV-1 and SIV” value in the data set on HIV-1 and SIV is listed as “time of administration is critical to the effectiveness of the treatment”.
Take `Nc1ccn([C@H]2CC[C@@H](CO)O2)c(=O)n1` [DDC, reference compound]: in [3], the “inhibitory activity towards two particular enzymes isolated from L1210 cells” value is on record as “only marginal inhibitory activity”. Besides, the “activity against sarcoma 180 cells” value with sarcoma 180 cells is “inactive”. For the same compound, the “activity against L1210 cells” value in the data set with L1210 cells was “inactive”.
